Source: BindingDB's records for doi:10.1021/bi701378g (Pfizer, 2007)

Key:
Conditions in all cases: pH 7.4; 30 °C
[1] = target: T1, Fatty-acid amide hydrolase 1 (Homo sapiens, UniProt O00519); assay: FAAH Inhibition Assay (5 min Preincubation)
T1 sequence (O00519 whole entry): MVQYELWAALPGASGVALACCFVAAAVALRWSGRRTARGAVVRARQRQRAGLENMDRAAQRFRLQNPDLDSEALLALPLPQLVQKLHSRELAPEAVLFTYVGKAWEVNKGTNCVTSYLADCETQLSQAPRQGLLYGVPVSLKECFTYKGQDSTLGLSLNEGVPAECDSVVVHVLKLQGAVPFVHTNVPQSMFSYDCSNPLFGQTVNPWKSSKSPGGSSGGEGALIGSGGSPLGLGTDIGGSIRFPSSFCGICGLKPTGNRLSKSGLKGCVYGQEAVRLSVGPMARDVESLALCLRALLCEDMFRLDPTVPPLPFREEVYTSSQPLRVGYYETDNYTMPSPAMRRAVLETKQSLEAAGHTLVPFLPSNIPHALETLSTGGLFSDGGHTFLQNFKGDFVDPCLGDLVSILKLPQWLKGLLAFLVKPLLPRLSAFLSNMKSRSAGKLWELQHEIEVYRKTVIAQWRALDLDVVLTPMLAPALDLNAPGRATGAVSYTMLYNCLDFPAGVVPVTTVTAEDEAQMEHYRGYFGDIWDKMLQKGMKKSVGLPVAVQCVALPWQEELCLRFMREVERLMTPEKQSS
Description: (§1) FAAH activity was measured by following the production of ammonia generated from the hydrolysis of oleamide by FAAH. GDH catalyzes the condensation of ammonia and alpha-ketoglutarate to glutamate with a concomitant conversion of NADH to nicotinamide adenine dinucleotide, oxidized form (NAD+), which is spectrophotometrically measured at 340 nm. Test compounds were preincubated with FAAH at room temperature for 5 min. The reaction was initiated with the addition of substrate oleamide. The absorbance at 340 nm was collected over a period of 30 min with reading taken in 10-s intervals using a spectrophotometer.

[2] = target: T1, Fatty-acid amide hydrolase 1; assay: FAAH Inhibition Assay (15 min Preincubation)
Description: as §1, with “15” for “5”

[3] = target: T1, Fatty-acid amide hydrolase 1; assay: FAAH Inhibition Assay (30 min Preincubation)
Description: as §1, with “30” for “5”

[4] = target: T1, Fatty-acid amide hydrolase 1; assay: FAAH Inhibition Assay (60 min Preincubation)
Description: as §1, with “60” for “5”

IC50 [1]: 991 nM
IC50 [2]: 687 nM
IC50 [3]: 473 nM
IC50 [4]: 33 nM
SMILES: O=C(Nc1ccccc1)N1CCN(Cc2ccc3ccccc3n2)CC1 [N-phenyl-4-(quinolin-2-ylmethyl)piperazine-1-carboxamide]
